Each block holds one compound with its values, some of them ahead of it.
Tests used:
[1] = test system: CV-1P (African monkey green kidney fibroblasts cells); assay: In vitro transfection of plasmid DNA, β-galactosidase activity per well; assay type: cell-based; details: CVI-P
Procedure: Transfer of plasmid DNA by various compounds was investigated by using CV-1P (African monkey green kidney fibroblasts cells) and D407 (human retinal pigment epithelial) cells.
The cells were cultured in Dulbecco's modified Eagle's medium (DMEM, Gibco), supplemented with 10% fetal bovine serum (FBS), penicillin/streptomycin (100 units/ml and 100 μg/ml respectively) and 2 mM L-glutamine for D 407 cell line. Cell cultures were maintained at 37° C. in a 7% CO2/air incubator. The cells were collected, counted and seeded in growth medium (100 μl) into 96-well culture plate, 20 000 cells per well. One day later the medium was replaced with fresh medium without serum (150 μl)
In the case of confluent CV1-P cells the medium (with of without serum) was changed on fourth day of cell growth before the transfection.
The complexes at different derivative/DNA charge ratios for transfection procedure were prepared just before use in 50 mM MES—50 mM HEPES—75 mM NaCl buffer, pH 7.2 in separate 96 well plates. One hour after changing the serum-free medium with 10% serum the complexes were added to the cells at […]. Dose of DNA per well was 0.6 μg. After 5 h the complexes were removed, the cells were washed with PBS, and the normal growth medium was added. After 45 h of incubation at 37° C. the cells were lysed with 2% Triton X 100, twice deep frozen and the β-galactosidase activity in each well was determined spectrofotometrically with ELx800 automated microplate reader (Bio-Tex Instruments Inc., Winooski, Vt. USA) by monitoring the hydrolysis of o-nitrophenylgalactopyranoside (oNPG) at 405 nm. Purified β-galactosidase from E.coli was used to construct a standard curve and to calculate […] activity in the transfected cells. […] Transfection efficiencies are given as percentage in comparison to transfection efficiency of Lipofectin^R.

[2] = test system: D407 (human retinal pigment epithelial) cells; assay: as above; assay type: cell-based; details: D 407
Procedure: The complexes at different derivative/DNA charge ratios for transfection procedure were prepared just before use in 50 mM MES—50 mM HEPES—75 mM NaCl buffer, pH 7.2 in separate 96 well plates. One hour after changing the serum-free medium with 10% serum the complexes were added to the cells at 370C. Dose of DNA per well was 0.6 μg. After 5 h the complexes were removed, the cells were washed with PBS, and the normal growth medium was added. After 45 h of incubation at 37° C. the cells were lysed with 2% Triton X 100, twice deep frozen and the β-galactosidase activity in each well was determined spectrofotometrically with ELx800 automated microplate reader (Bio-Tex Instruments Inc., Winooski, Vt. USA) by monitoring the hydrolysis of o-nitrophenylgalactopyranoside (oNPG) at 405 nm. Purified β-galactosidase from E.coli was used to construct a standard curve and to calculate 9-galactosidase activity in the transfected cells. […] Transfection efficiencies are given as percentage in comparison to transfection efficiency of Lipofectin^R.

[3] = test system: D 407 cells; assay: Cytotoxicity of amphiphile/DNA complexes, percentage of survived cells; assay type: cell-based, human; set-up: concentration or dose not given beside the values
[4] = test system: plasmid DNA; assay: DNA condensation/complexation, EtBr displacement assay; assay type: binding
Procedure: The ability of the cationic amphiphiles to condense DNA was assessed with an EtBr displacement assay. Briefly, in 96 well plates plasmid DNA (0.6 μg per well) was reacted with 0.002% EtBr in 20 mM HEPES—150 mM NaCl buffer, pH 7.4 and fluorescence intensity was measured at 530 nm (excitation) and 590 nm (emission). Intercalation of EtBr molecules between the base pairs of the DNA double helix results in increased fluorescence signal. Immediately thereafter, the cationic liposomes were added to form complexes at different +/−charge ratios and the quenching of fluorescence intensity of EtBr was monitored. Condensation of DNA upon complexation with liposomes results in the displacement of EtBr from DNA and in decreased fluorescence signal. Fluorescence was measured using FL 500 microplate fluorescence reader (Bio-Tek Instruments Inc., Winooski, Vt., USA).
The values are expressed as percentage of the maximum fluorescence signal when EtBr bound to DNA in the absence of an amphiphile. Each data point is from at least triplicate experiment ±S.D.

[5] = test system: CVI-P cells; assay: Cytotoxicity of amphiphile/DNA complexes, percentage of survived cells
[6] = amphiphile/DNA +/− charge ratio 0.5
[7] = amphiphile/DNA +/− charge ratio 1
[8] = amphiphile/DNA +/− charge ratio 2
[9] = amphiphile/DNA +/− charge ratio 4
[10] = amphiphile/DNA +/− charge ratio 8

SMILES: Br.CCCOCCOC(=O)C1=C(C)NC(C)=C(C(=O)OCCOCCC)C1c1ccc[n+](CC(=O)OCC)c1.[Br-]
melting point: 144 to 146 °C

SMILES: CC1=C(C(=O)OCc2ccc([N+](=O)[O-])cc2)C(c2ccc[n+](C)c2)C(C(=O)OCc2ccc([N+](=O)[O-])cc2)=C(C)N1.I.[I-]
melting point: 202 to 203 °C

SMILES: CCCCCCCCCCCCCCOC(=O)C1=C(C[n+]2ccccc2)NC(C[n+]2ccccc2)=C(C(=O)OCCCCCCCCCCCCCC)C1c1ccccc1.[Br-].[Br-] [XXIV, 1,1′-{[1,4-Dihydro-4-phenyl-3,5-bis(tetradecyloxycarbonyl)-pyridine-2,6-diyl]dimethylene}bispyridinium dibromide]
transfection efficiency [1, 6]: 0,63 β-galactosidase units per well | transfection efficiency [1, 7]: 2,48 β-galactosidase units per well | transfection efficiency [1, 8]: 15,46 β-galactosidase units per well | transfection efficiency [1, 9]: 47,78 β-galactosidase units per well | transfection efficiency [1, 10]: 9,48 β-galactosidase units per well | transfection efficiency [2, 6]: 0,20 β-galactosidase units per well | transfection efficiency [2, 7]: 0,44 β-galactosidase units per well | transfection efficiency [2, 8]: 0,53 β-galactosidase units per well | transfection efficiency [2, 9]: 15,04 β-galactosidase units per well | transfection efficiency [2, 10]: 3,61 β-galactosidase units per well | cytotoxicity as a percentage of survived cells [3, 6]: 97,59% | cytotoxicity as a percentage of survived cells [3, 7]: 88,59% | cytotoxicity as a percentage of survived cells [3, 8]: 98,83% | cytotoxicity as a percentage of survived cells [3, 9]: 86,99% | cytotoxicity as a percentage of survived cells [3, 10]: 51,24% | complexation, percentage of the maximum fluorescence signal when EtBr bound to DNA in the absence of an amphiphile [4, 6]: 78,91% | complexation, percentage of the maximum fluorescence signal when EtBr bound to DNA in the absence of an amphiphile [4, 7]: 63,92% | complexation, percentage of the maximum fluorescence signal when EtBr bound to DNA in the absence of an amphiphile [4, 8]: 54,5% | complexation, percentage of the maximum fluorescence signal when EtBr bound to DNA in the absence of an amphiphile [4, 9]: 50,0% | complexation, percentage of the maximum fluorescence signal when EtBr bound to DNA in the absence of an amphiphile [4, 10]: 49,62% | cytotoxicity as a percentage of survived cells [5, 6]: 96,17% | cytotoxicity as a percentage of survived cells [5, 7]: 98,12% | cytotoxicity as a percentage of survived cells [5, 8]: 86,72% | cytotoxicity as a percentage of survived cells [5, 9]: 88,19% | cytotoxicity as a percentage of survived cells [5, 10]: 48,08%

SMILES: Br.CCCCCCCCCCCCCCCC[n+]1cccc(C2C(C(=O)OC(C)CC)=C(C)NC(C)=C2C(=O)OC(C)CC)c1.[Br-] (centres unmarked)
melting point: 159 to 165 °C

SMILES: Br.CCCCCCCCCCCCCCCCOC(=O)C1=C(C)NC(C)=C(C(=O)OCCCCCCCCCCCCCCCC)C1c1ccc[n+](CC(=O)OCC)c1.[Br-]
melting point: 99 to 102 °C

SMILES: CCCCCCCCCCCCOC(=O)C1=C(C)NC(C)=C(C(=O)OCCCCCCCCCCCC)C1c1ccc[n+](C)c1.I.[I-] [V, 3′,5′-Bis(dodecyloxycarbonyl)-1′,4′-dihydro-1,2′,6′-trimethyl-3,4′-bipyridinium iodide]
transfection efficiency [1, 6]: 0,48 β-galactosidase units per well | transfection efficiency [1, 7]: 0,69 β-galactosidase units per well | transfection efficiency [1, 8]: 27,19 β-galactosidase units per well | transfection efficiency [1, 9]: 5,95 β-galactosidase units per well | transfection efficiency [1, 10]: 1,4 β-galactosidase units per well | transfection efficiency [2, 6]: 0,26 β-galactosidase units per well | transfection efficiency [2, 7]: 8,10 β-galactosidase units per well | transfection efficiency [2, 8]: 8,78 β-galactosidase units per well | transfection efficiency [2, 9]: 0,55 β-galactosidase units per well | transfection efficiency [2, 10]: 0,33 β-galactosidase units per well | cytotoxicity as a percentage of survived cells [3, 6]: 85,27% | cytotoxicity as a percentage of survived cells [3, 7]: 66,05% | cytotoxicity as a percentage of survived cells [3, 8]: 55,61% | cytotoxicity as a percentage of survived cells [3, 9]: 9,14% | cytotoxicity as a percentage of survived cells [3, 10]: 0,28% | complexation, percentage of the maximum fluorescence signal when EtBr bound to DNA in the absence of an amphiphile [4, 6]: 88,8% | complexation, percentage of the maximum fluorescence signal when EtBr bound to DNA in the absence of an amphiphile [4, 7]: 80,33% | complexation, percentage of the maximum fluorescence signal when EtBr bound to DNA in the absence of an amphiphile [4, 8]: 75,17% | complexation, percentage of the maximum fluorescence signal when EtBr bound to DNA in the absence of an amphiphile [4, 9]: 71,93% | complexation, percentage of the maximum fluorescence signal when EtBr bound to DNA in the absence of an amphiphile [4, 10]: 72,4% | cytotoxicity as a percentage of survived cells [5, 6]: 100,21% | cytotoxicity as a percentage of survived cells [5, 7]: 87,18% | cytotoxicity as a percentage of survived cells [5, 8]: 71,79% | cytotoxicity as a percentage of survived cells [5, 9]: 40,55% | cytotoxicity as a percentage of survived cells [5, 10]: 8,67%

SMILES: CCCCCCCCCCCCCCCCOC(=O)C1=C(C[n+]2ccccc2)NC(C[n+]2ccccc2)=C(C(=O)OCCCCCCCCCCCCCCCC)C1c1ccccc1.[Br-].[Br-] [XXV, 1,1′-[(3,5-Dihexadecyloxycarbonyl-4-phenyl-1,4-dihydropyridine-2,6-diyl)dimethylene]bispyridinium dibromide]
transfection efficiency [1, 6]: 0,23 β-galactosidase units per well | transfection efficiency [1, 7]: 0,24 β-galactosidase units per well | transfection efficiency [1, 8]: 17,5 β-galactosidase units per well | transfection efficiency [1, 9]: 15,15 β-galactosidase units per well | transfection efficiency [1, 10]: 9,04 β-galactosidase units per well | transfection efficiency [2, 6]: 0,57 β-galactosidase units per well | transfection efficiency [2, 7]: 0,31 β-galactosidase units per well | transfection efficiency [2, 8]: 066 β-galactosidase units per well | transfection efficiency [2, 9]: 2,05 β-galactosidase units per well | transfection efficiency [2, 10]: 2,47 β-galactosidase units per well | cytotoxicity as a percentage of survived cells [3, 6]: 97,52% | cytotoxicity as a percentage of survived cells [3, 7]: 97,73% | cytotoxicity as a percentage of survived cells [3, 8]: 101,48% | cytotoxicity as a percentage of survived cells [3, 9]: 89,12% | cytotoxicity as a percentage of survived cells [3, 10]: 62,05% | complexation, percentage of the maximum fluorescence signal when EtBr bound to DNA in the absence of an amphiphile [4, 6]: 94,16% | complexation, percentage of the maximum fluorescence signal when EtBr bound to DNA in the absence of an amphiphile [4, 7]: 89,06% | complexation, percentage of the maximum fluorescence signal when EtBr bound to DNA in the absence of an amphiphile [4, 8]: 83,1% | complexation, percentage of the maximum fluorescence signal when EtBr bound to DNA in the absence of an amphiphile [4, 9]: 77,14% | complexation, percentage of the maximum fluorescence signal when EtBr bound to DNA in the absence of an amphiphile [4, 10]: 71,37% | cytotoxicity as a percentage of survived cells [5, 6]: 92,82% | cytotoxicity as a percentage of survived cells [5, 7]: 99,29% | cytotoxicity as a percentage of survived cells [5, 8]: 101,03% | cytotoxicity as a percentage of survived cells [5, 9]: 107,03% | cytotoxicity as a percentage of survived cells [5, 10]: 100,65%

Next, values leading:

melting point: 212 to 213 °C (dec.)
SMILES: Br.CCOC(=O)C1=C(C)NC(C)=C(C(=O)OCC)C1c1ccc[n+](Cc2ccc([N+](=O)[O-])cc2)c1.[Br-]

melting point: 166 to 169 °C
SMILES: CC1=C(C(=O)OC(C)(C)C)C(c2ccc[n+](C)c2)C(C(=O)OC(C)(C)C)=C(C)N1.I.[I-] [Example 2c, 3′,5′-Bis[(1,1-dimethylethoxy)carbonyl]-1′,4′-dihydro-1,2′,6′-trimethyl-3,4′-bipyridinium iodide]

melting point: 197 to 199 °C
SMILES: CCOC(=O)C1=C(C)NC(C)=C(C(=O)OCC)C1c1cccc[n+]1C.I.[I-] [Example 2v, 3′,5′-Bis(ethoxycarbonyl)-1′,4′-dihydro-1,2′,6′-trimethyl-2,4′-bipyridinium iodide]

melting point: 59 to 61 °C
SMILES: CCCOCCOC(=O)C1=C(C)NC(C)=C(C(=O)OCCOCCC)C1c1ccc[n+](C)c1.I.[I-] [VIII, 1′,4′-Dihydro-1,2′,6′-trimethyl-3′,5′-bis[(2-propoxyethoxy)-carbonyl]-3,4′-bipyridinium iodide]

melting point: 117 to 121 °C
SMILES: Br.CCCCCCCCCCCCCCCC[n+]1ccccc1C1C(C(=O)OCC)=C(C)NC(C)=C1C(=O)OCC.[Br-]

melting point: 197 to 199 °C
SMILES: Br.CCOC(=O)C[n+]1ccccc1C1C(C(=O)OCC)=C(C)NC(C)=C1C(=O)OCC.[Br-]

melting point: 224 to 227 °C
SMILES: Br.CCOC(=O)C1=C(C)NC(C)=C(C(=O)OCC)C1c1cc[n+](CC(=O)c2ccccc2)cc1.[Br-]
